Source: US5696276A, “Process for preparing 5,8-dihydroxynaphthoquinone derivatives, novel 5,8-dihydroxynaphthoquinone derivatives and their use as anticancer agent” (Kuhnil Pharmaceutical Co., Ltd., priority 1993, dated 1997)
Values after ≈ are worked out from the molar mass of the structure shown.

Tests used:
L1210 cells [1] = assay: Cytotoxic activity against L1210 cells; format: cell-based; settings: Mus musculus; L1210 cells, 48 hours, 37° C.; read-out: ED50, cytotoxic activity against L1210
Method in brief: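 Log-phase L1210 cells (5×10^4 cells/ml) in Fisher medium exposed 48 h at 37 °C in CO2 to three dilutions of sample dissolved in ethanol or DMSO. Cells counted by haemacytometer; growth relative to control; ED50 (μg/ml) from linear regression of growth % on log concentration.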

HL-60 cells = assay: Cytotoxic activity against HL-60 cells; format: cell-based; settings: Homo sapiens; HL-60 cells, 48 hours, 37° C.; read-out: ED50, cytotoxic activity against HL-60
Protocol: As in the test for the cytotoxic activity against L1210 cells, the test samples were dissoved in ethanol or dimethylsulfoxide in a certain concentration. 0.1 ml of the sample solution was mixed with 0.9 ml of a fresh medium to prepare the dilutions. To each two test tubes having a screw cap were added 100, 50, 25 μl, respectively, of the sample dilutions by means of a micropipet. To each test tube for the test group and the control group (2√n: n=number of the samples) was added 5 ml of the dilutions of HL-60 cells and K-562 cells which were cultured and activated before 24 hours from the beginning of experiment and then diluted in a concentration of 1×10^5 cells/mi. All test tubes were cultured for 48 hours in a CO2 incubator at 37° C. and then the number of cells was counted using a haemacytometer.
The ED50 value is defined as a concentration (μg/ml) of the sample which inhibits the growth of cancer cells by 50% of the control group and determined according to a method described in NIC's mannual (NIC=National Cancer Institue, U.S.A.). The growth rate Y(%) of cells in the presence of the test sample in each concentration was calculated according to the followign equation: […]
In the above equation, T means the average cell number per ml in the test group after incubation for 48 hours in the presence of the test samples in each concentration, C means the average cell number per ml in the control group after incubation for 48 hours, and Co means the average cell number per ml in the control group at the beginning of incubation. The Y(%) value at each concentration and log10 value of each concentration were obtained and the regression curve was constructed according to the following equation from those obtained values. In this case, when all the Y(%) value obtained at each concentration is greater than 55% or lower than 45%, the experiment was repeatedly conducted.
To construct the regression curve Y=A+BX the values A and B were obtained using the following equation. [formula]
In the above, the value N is the number of selected points which is greater than 2 and lower than, or identical with, the number of cencentration of the test sample, Xi is log(concentration) i, and Yi is the growth ratio at (concentration)i. The value of ED50 was obtained for those obtained slope and intercept.

A549 cancer cells = assay: Cytotoxic activity against A549 cancer cells (sulforhodamin B method); format: cell-based; settings: Homo sapiens; A549 cells, SRB method, 48 hours; read-out: ED50, cytotoxic activity against A549
Method in brief: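 Cells seeded at 8×10^4 per well, attached 24 h, then exposed 48 h to six log-spaced concentrations in triplicate. TCA-fixed, SRB-stained, OD read at 520 nm; growth inhibition computed relative to time-zero and untreated counts, IC50 from regression.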

S-180 sarcoma cells = assay: Animal experiment using Sarcoma S-180 cells (survival of mouse); format: in vivo, male ICR mouse; settings: for responders at 10 µmol/kg / response vs control in vivo at 10 µmol/kg: daily dose 10 μmole (mg/kg/day given per compound)
Method in brief: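 Male ICR mice (20 to 25 g) received intraperitoneal transplants of 0.1 ml S-180 cell suspension (10^7 cells/ml), prepared from ascites by washing in cold physiological saline. After 24 hours, groups of 8 to 9 mice received 7 to 8 ip injections of sample in dimethylsulfoxide diluted with saline. Controls got 2% dimethylsulfoxide-saline. Survival (T/C, %) was scored against control death.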

L1210 cells [2] = settings: Kor. J. Pharm. Soc., 34, 262-266 (1990); cited from earlier work
S-180 sarcoma = settings: Kor. J. Pharm. Soc., 34, 262-266 (1990); cited from earlier work
K-562 cells = assay: Cytotoxic activity against K-562 cells; format: cell-based; settings: Homo sapiens, K562, 48 h, read-out: ED50, cytotoxic activity against K562
Method in brief: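 HL-60 and K-562 cells (1×10^5 cells/ml) incubated 48 h at 37° C with sample dilutions from ethanol or DMSO stocks; cells counted by haemacytometer. ED50 (μg/ml) is the concentration giving 50% growth inhibition versus control, taken from linear regression of growth rate against log concentration.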

S-180 ascitic cancer = settings: mouse suffering from S-180 ascitic cancer; Chem. Pharm. Bull. 25, 2392-2395 (1977); cited from earlier work
L1210 cancer = settings: Chem. Pharm. Bull. 25, 2392-2395 (1977); cited from earlier work
[3] = ip, 1200 h, S-180 ICR mouse, intraperitoneal, 7 to 8 injections, read-out: Number of mouse survived for 50 days (converted)
[4] = ip, S-180 ICR mouse, intraperitoneal, 7 to 8 injections, read-out: T/C

## CC(=O)OC(CC=C(C)C)C1=CC(=O)c2c(O)ccc(O)c2C1=O (stereo not shown) [2-(1-acetyloxy-4-methyl-3-pentenyl)-5,8-dihydroxy-1,4-naphthoquinone]
L1210 cells [1]
  IC50: < 0.01 µg/mL
HL-60 cells
  IC50: 0.06 µg/mL (≈ 0.182 µM)
A549 cancer cells
  IC50: 1 µg/mL (≈ 3.03 µM)
S-180 sarcoma cells; Mus musculus, S-180, ip, 1200 h, read-out: Number of mouse survived for 50 days
  responders at 5 µmol/kg: 0%
S-180 sarcoma cells; ip, S-180 ICR mouse, intraperitoneal, daily dose 5 μmole (mg/kg/day given per compound), 7 to 8 injections, read-out: T/C
  response vs control in vivo at 5 µmol/kg: 160%
L1210 cells [2]
  ED50 value against L1210 cells: 0.01 µg/mL (≈ 0.0303 µM)
S-180 sarcoma
  LSI in mouse suffering from S-180 sarcoma: 85%

## CCC/C=C/C(=O)OC(CC=C(C)C)C1=CC(=O)c2c(O)ccc(O)c2C1=O (stereo not drawn) [2-[1-trans-(2-hexenoyl)oxy-4-methyl-3-pentenyl]-5,8-dihydroxy-1,4-naphthoquinone]
L1210 cells [1]
  IC50: 0.5 µg/mL (≈ 1.3 µM)
HL-60 cells
  IC50: 1 µg/mL (≈ 2.6 µM)
A549 cancer cells
  IC50: 1.6 µg/mL (≈ 4.16 µM)
S-180 sarcoma cells; [3]
  responders at 10 µmol/kg: 12.5%
S-180 sarcoma cells; [4]
  response vs control in vivo at 10 µmol/kg: 160%

## CC/C=C/CC(=O)OC(CC=C(C)C)C1=CC(=O)c2c(O)ccc(O)c2C1=O (stereo not drawn) [2-[1-trans-(3-hexenoyl)oxy-4-methyl-3-pentenyl]-5,8-dihydroxy-1,4-naphthoquinone]
L1210 cells [1]
  IC50: 0.3 µg/mL (≈ 0.78 µM)
HL-60 cells
  IC50: 0.9 µg/mL (≈ 2.34 µM)
A549 cancer cells
  IC50: 3.3 µg/mL (≈ 8.58 µM)
S-180 sarcoma cells; [3]
  responders at 10 µmol/kg: 25%
S-180 sarcoma cells; [4]
  response vs control in vivo at 10 µmol/kg: 200%

## CC(C)=CCC(OC(=O)/C=C(C)/C=C/C=C(C)/C=C/C1=C(C)CCCC1(C)C)C1=CC(=O)c2c(O)ccc(O)c2C1=O (stereo not drawn) [2-[1-trans-retinoyloxy)-4-methyl-3-pentenyl]-5,8-dihydroxy-1,4-naphthoquinone]
L1210 cells [1]
  IC50: 3.1 µg/mL (≈ 5.43 µM)
HL-60 cells
  IC50: 4.3 µg/mL (≈ 7.53 µM)
A549 cancer cells
  IC50: > 20 µg/mL
S-180 sarcoma cells; ip, 1200 h, S-180 ICR mouse, intraperitoneal, daily dose 15 μmole (mg/kg/day given per compound), 7 to 8 injections, read-out: Number of mouse survived for 50 days (converted)
  responders at 15 µmol/kg: 0%
S-180 sarcoma cells; ip, S-180 ICR mouse, intraperitoneal, daily dose 15 μmole (mg/kg/day given per compound), 7 to 8 injections, read-out: T/C
  response vs control in vivo at 15 µmol/kg: 107%

## O=c1[nH]cc(F)c(=O)[nH]1 [5-Fluorouracil, reference compound]
L1210 cells [1]
  IC50: 0.02 µg/mL (≈ 0.154 µM)
HL-60 cells
  IC50: 0.2 µg/mL (≈ 1.54 µM)
K-562 cells
  IC50: 1 µg/mL (≈ 7.69 µM)
A549 cancer cells
  IC50: 3.7 µg/mL (≈ 28.4 µM)

## CC(C)=CC[C@@H](O)C1=CC(=O)c2c(O)ccc(O)c2C1=O [shikonin]
S-180 ascitic cancer
  increase in life span (LSI): 92%
L1210 cancer
  effect in mouse suffering from L1210 cancer: does not show a significant effect
